Measured values from US20150322001A1, “OMEGA-3 ANALOGUES” (The University of Sydney, priority 2012, published 2015).

Legend:
MDA-MB-231 cells [1] = experiment: MTT assay, inhibition of proliferation of MDA-MB-231 cells; assay type: cell-based, human; settings: MTT reduction, 24 h
Procedure: The synthesized compounds given in Table 1 were tested for their activity in inhibiting the proliferation of MDA-MB-231 cells.
• 1. Cell culture and cell treatment: Breast cancer MDA-MB-231 cells were maintained in monolayers at 37° C. in DMEM containing penicillin and streptomycin, L-glutamine and 10% fetal bovine serum in an atmosphere of 95% air and 5% CO2. Cells were seeded into multi-well plates at 5×10^4 cells/mL; media was replaced 24 h later with fresh serum-free DMEM containing one of the test compounds in DMSO. DMSO was added to control cells at a final concentration of 0.1%. • 2. MTT assay: MDA-MB-231 cells were seeded in 96 well plates (0.2 mL/well), treated with compounds at 0.01, 0.1, 0.5, 1, 5 and 10 μM for 24 h. MTT (25 μL of 2.5 mg/mL solution) was added to each well for 2 h, after which MTT and media were removed. The blue formazan product formed from MTT by live cells was dissolved in DMSO (100 μL/well) and quantified spectrophotometrically at 540 nm in a multilabel counter. IC50s were calculated using GraphPad Prism (Prism 5.01). • 3. Caspase 3 activity: MDA-MB-231 cells were seeded in 96 well plates (0.2 mL/well), and were treated with compounds at 0.1, 0.5 and 1 μM for 24 h. Caspase 3 activity was quantified using the Caspase-Glo 3/7 assay kit according to manufacturer's protocol (Promega). Briefly, after 24 h treatment, fresh serum-free media was added to wells. Cells were equilibrated at room temperature for 30 min, caspase 3/7 substrate in lysis buffer was added and the luminescence was measured. Relative caspase 3/7 activity was calculated as [(luminescence in treatment−luminescence in control)/luminescence in control×100%]. • 4. Annexin V assay: MDA-MB-231 cells were seeded in 6 well plates (3 mL/well), and were treated with compounds at 0.1, 0.5 and 1 μM for 24 h. The apoptotic cells were quantified by Annexin V staining according to the manufacture's protocol (BD Biosciences). Briefly, after 24 h treatment, the media and harvested cells were collected, followed by PBS washes. Cells were stained with Annexin V and PI in binding buffer for 15 min at room temperature and quantified by flow cytometry (BD Biosciences). The apoptotic cells (%) were calculated as [(Annexin V positive cells in treatment−Annexin V positive cells in control)/Annexin V positive cells in control×100%]. • 5. Matrigel assay: MDA-MB-231 cells were trypsinized and resuspended in serum-free DMEM media (3.5×10^6 cells/mL). The cell suspension was mixed 1:1 with Matrigel solution (Bio Scientific). Aliquots (20 μL containing 3.5×10^4 cells) were placed into 6-well tissue-culture dishes to form well-defined droplets and incubated at 37° C. for 5 min to enable semi-solidification. Migration media was freshly made as DMEM containing 20% fetal bovine serum, epidermal growth factor 10 pg/mL, hydrocortisone 0.4 ng/mL, vascular endothelial growth factor (VEGF, 1 pg/mL), basic fibroblast growth factor (bFGF, 20 pg/mL), insulin-like growth factor-1 (40 pg/mL), ascorbic acid (2 ng/mL) and heparin (45 ng/mL). Compounds were added in migration media (3 mL/well) and plates were then incubated for 24 h. Cells that migrated out of droplets were scored using phase-contrast microscopy and digital image analysis (Olympus). • 6. Real-time RT PCR: Cell droplets from migration assays were collected, and total RNA was extracted using Tri Reagent (Astral Scientific) according to the manufacturer's protocol. RNA samples were treated with DNase (Promega) and gene expression was quantified using an Express Onestep Superscript qRT-PCT kit (Invitrogen) and gene-specific primers: heparanase (forward) […] and (reverse) GCAGCAACTTTGGCATTTC, integrin-α3 (forward) […] and (reverse) […], actin (forward) […] and (reverse) […]. The cycling conditions (Roto-Gene™ 6000; Corbett Research) were as follows: 95° C. (15 min); 40 cycles of denaturation (95° C., 30 s); annealing (60° C., 1 min); elongation (72° C., 1 min). […]

[2] = tested on: MDA-MB-231 breast cancer cell xenografts; experiment: In vivo evaluation of compound 15, MDA-MB-231 xenografts in nude mice; settings: 10 mg/kg intraperitoneally, 39 days
Procedure: One of the synthesised compounds given in Table 1 (compound 15, reproduced below) was tested for its activity in inhibiting the proliferation of MDA-MB-231 breast cancer cell xenografts in nude mice.
female nu/nu Balb/c mice of 5-6 weeks age at the commencement of the experiment (one week acclimatization after arrival in the animal facility).
two groups of 8 mice each.
MDA-MB-231 cells, 4×10^5 cells/100 μL (Matrigel:phosphate-buffered saline, 1:1) per mouse; subcutaneous injection into the mammary pad.
4 days after cancer cell xenografting compound 15 was administered intraperitoneally at a dose of 10 mg/kg in corn oil (Sigma, containing 2% dimethylsulfoxide). Dosing continued for 6 days per week, for a total of 39 days. Control animals received 2% dimethylsulfoxide in corn oil, 100 μL per 20 g mouse for the same duration.
Body weights were measured daily and tumour sizes every three days (with calipers).

[3] = tested on: human MDA-MB-231 breast cancer cell xenografts; experiment: In vivo dose-response study of compound 29, MDA-MB-231 xenografts in nude mice; settings: for toxicity of the treatment (growth rates): all dose groups
Procedure: One of the synthesised compounds given in Table 1 (compound 29, reproduced below) was the subject of an in vivo dose-response study in nude mice with human MDA-MB-231 breast cancer cell xenografts. One group received compound 15 in parallel.
nu/nu Balb/c; Age: 6 weeks at commencement of study; Gender: female
control, compound 29 (2.5 mg/kg), compound 29 (10 mg/kg), compound 29 (40 mg/kg) and compound 15 (10 mg/kg); 5 mice/group
human MDA-MB-231 cells, 4×10^5 cells/100 μl (Matrigel:PBS 1:1)/mouse, subcutaneous injection into the 4th mammary fat pad.
after 4 days animals received compound 29 at 40, 10 and 2.5 mg/kg doses (in corn oil, Sigma, and 8% DMSO), or compound 15 at 10 mg/kg in corn oil at 4% DMSO, 6 days each week, for 38 days. Control: 8% DMSO in corn oil.
weighed six days a week; tumour sizes measured with calipers every 3 to 4 days.

MDA-MB-231 cells [4] = experiment: Proapoptotic activity in MDA-MB-231 cells (JC-1 staining, confluence); assay type: cell-based, human
Procedure: Several of the compounds were tested for the capacity to induce apoptosis in MDA-MB-231 cells (10 μM, 24 hr treatments). […] In view of the finding with compound 29 a concentration-relationship was developed with caspase-3/7 activity (an established marker of apoptosis) as the endpoint (FIG. 11).

Row | IC50 (MDA-MB-231 cells [1]; Homo sapiens) [nM] | Compound | further results
1 |  | 16-{[(4-methoxyphenyl)carbamoyl]amino}hexadecanoic acid [Compound 24] | IC50 (MDA-MB-231 cells [1]): 1300 nM
2 | 850 ± 20 | CCOC(=O)CCCCCCCCCCCCCCCNC(=O)NC1CCCCC1 [Compound 1] | 
3 | 1110 ± 260 | CCOC(=O)CCCCCCCCCCCCCCCNC(=O)NCCc1ccccc1 [Compound 2, Ethyl 16-{[(2-phenylethyl)carbamoyl]amino}hexadecanoate] | 
4 | 1500 ± 80 | O=C(O)CCCCCCCCCCCCCCCNC(=O)NCCc1ccccc1 [Compound 3, 16-{[(2-phenylethyl)carbamoyl]amino}hexadecanoic acid] | 
5 | 6920 ± 310 | CCOC(=O)CCCCCCCCCCCCCCCNC(=O)NC(C)(C)C [Compound 4, Ethyl 16-[(tert-butylcarbamoyl)amino]hexadecanoate] | 
6 | 2780 ± 190 | O=C(O)CCCCCCCCCCCCCCCNC(=O)NC1CCCCC1 [Compound 5, 16-[(cyclohexylcarbamoyl)amino]hexadecanoic acid] | 
7 | 1200 | O=C(O)CCCCCCCCCCCCCCCNC(=O)Nc1ccccc1 [Compound 6, 16-[(phenylcarbamoyl)amino]hexadecanoic acid] | 
8 | 1220 ± 80 | CC(C)(C)NC(=O)NCCCCCCCCCCCCCCCC(=O)O [Compound 7, 16-[(tert-butylcarbamoyl)amino]hexadecanoic acid] | 
9 | 720 ± 10 | O=C(O)CCCCCCCCCCCCCCCNC(=O)NCc1ccccc1 [Compound 8, 16-[(benzylcarbamoyl)amino]hexadecanoic acid] | 
10 | 1590 ± 280 | CCOC(=O)CCCCCCCCCCCCCCCNC(=O)Nc1ccccc1 [Compound 9, Ethyl 16-[(phenylcarbamoyl)amino]hexadecanoate] | 
11 | 870 ± 80 | CCOC(=O)CCCCCCCCCCCCCCCNC(=O)NCc1ccccc1 [Compound 10, Ethyl 16[(benzylcarbamoyl)amino]hexadecanoate] | 
12 | 760 ± 70 | CCOC(=O)CCCCCCCCCCCCCCCNC(=O)Nc1ccc(F)cc1 [Compound 11, Ethyl 16-{[(4-fluorophenyl)carbamoyl]amino}hexadecanoate] | 
13 | 1000 | O=C(O)CCCCCCCCCCCCCCCNC(=O)Nc1ccc(F)cc1 [Compound 12, 16-{[(4-fluorophenyl)carbamoyl]amino}hexadecanoic acid] | 
14 | 80 ± 10 | CCOC(=O)CCCCCCCCCCCCCCCNC(=O)Nc1ccc(Cl)cc1 [Compound 13, Ethyl 16-{[(4-chlorophenyl)carbamoyl]amino}hexadecanoate] | 
15 | 810 | O=C(O)CCCCCCCCCCCCCCCNC(=O)Nc1ccc(Cl)cc1 [Compound 14, 16-{[(4-chlorophenyl)carbamoyl]amino}hexadecanoic acid] | 
16 | 2750 ± 270 | CCOC(=O)CCCCCCCCCCCCCCCNC(=O)NC12CC3CC(CC(C3)C1)C2 [Compound 17, Ethyl 16-[(tricyclo[3.3.1.1^3,7]dec-1-ylcarbamoyl)amino]hexadecanoate] | 
17 | 660 ± 30 | CCNC(=O)NCCCCCCCCCCCCCCCC(=O)OCC [Compound 20, Ethyl 16-[(ethylcarbamoyl)amino]hexadecanoate] | 
18 | 1000 | O=C(O)CCCCCCCCCCCCCCCNC(=O)Nc1ccc(I)cc1 [Compound 26, 16-{[(4-iodophenyl)carbamoyl]amino}hexadecanoic acid] | 
19 | 1200 | O=C(O)CCCCCCCCCCCCCCCNC(=O)Nc1ccc(Cl)c(Cl)c1 [Compound 28, 16-{[(3,4-dichlorophenyl)carbamoyl]amino}hexadecanoic acid] | 

Row | Compound | IC50 (MDA-MB-231 cells [1]; Homo sapiens) [nM] | further results
20 | CCOC(=O)CCCCCCCCCCCCCCCNC(=O)Nc1ccc(C)cc1 [Compound 15, Ethyl 16-{[(4-methylphenyl)carbamoyl]amino}hexadecanoate] | 20 | dose limiting toxicity ([2]; 6 days per week): no dose limiting toxicity; mouse body weight loss ([2]; 6 days per week, FIG. 4): greater with compound 15 than control; tumour metastasis [2]: appears to suppress tumour metastasis; primary tumour growth (growth rate and volume) ([2]; FIG. 5): did not prevent primary tumour growth; mice with white small foci in the abdominal cavity ([2]; controls 7/8): 1/8; toxicity of the treatment (growth rates) ([3]; 38 days): non-toxic; mouse body weight gain or loss ([3]; compound 15 10 mg/kg IP, 38 days, FIG. 8): lost weight at the early stage of IP injections
21 | O=C(O)CCCCCCCCCCCCCCCNC(=O)Nc1ccc(Cl)c(C(F)(F)F)c1 [Compound 29, 16-({[4-chloro-3-(trifluoromethyl)phenyl]carbamoyl)amino}hexadecanoic acid] | 1100 | JC-1 staining (mitochondrial damage) (MDA-MB-231 cells [4]; 10 μM, 24 hr, FIG. 10): Increased JC-1 staining; confluence of treated cells (MDA-MB-231 cells [4]; FIG. 12): decreased confluence; tumour growth rate and volume at later time points (after day 25) ([3]; 2.5 mg/kg, FIG. 9): larger than the compound 29 (40 mg/kg) group; tumour growth ([3]; 10 mg/kg, FIG. 9): decreased from day 32; tumour weights versus control and 2.5 mg/kg groups ([3]; 40 mg/kg, day 38): significantly smaller; tumour volumes versus control and 2.5 mg/kg groups ([3]; 40 mg/kg, day 38, FIG. 9): significantly smaller; toxicity of the treatment (growth rates) ([3]; 38 days): non-toxic; mouse body weight gain or loss ([3]; compound 29 2.5 mg/kg, 38 days, FIG. 7): gained weight at a steady and similar rate; mouse body weight gain or loss ([3]; compound 29 10 mg/kg, 38 days, FIG. 7): gained weight at a steady and similar rate; mouse body weight gain or loss ([3]; compound 29 40 mg/kg, 38 days, FIG. 7): gained weight at a steady and similar rate; tumour foci in the peritoneal cavity ([3]; compound 29-treated mice (2.5, 10, 40 mg/kg), 38 days): No tumour foci were seen
